We go through 58 compounds from patent US6403600B1, “Methoximinophenylacetic acid amides” (Bayer Aktiengesellschaft, priority 1998, dated 2002).

A short description of the data set: logP determination by HPLC (EEC-Directive 79/831 Annex V. A8). Format: physicochemical. Conditions: gradient method, acetonitrile/0.1% aqueous phosphoric acid.
In general, logP refers to the decadic logarithm of the partition coefficient of the neutral form, usually between octanol and water. Read a high logP as a more lipophilic compound. As to `CON=C(C(=O)N(C)SC(F)(Cl)Cl)c1ccccc1Oc1ncnc(Oc2cccc(C=O)c2Cl)c1F` [Example 87], the logP worked out at 4.72.

Regarding `CON=C(C(=O)N(C)SC(F)(Cl)Cl)c1ccccc1Oc1ncnc(Oc2ccccc2)c1F` [Example 88], the logP was determined as 4.76.

Regarding `CON=C(C(=O)N(C)SC(F)(Cl)Cl)c1ccccc1Oc1ncnc(Oc2ccccc2C)c1F` [Example 89], the logP is 5.05.

`CON=C(C(=O)N(C)SC(F)(Cl)Cl)c1ccccc1Oc1ncnc(Oc2ccc(C)cc2C)c1F` [Example 90] gave a logP of 5.41.

`CON=C(C(=O)N(C)SC(F)(Cl)Cl)c1ccccc1Oc1ncnc(Oc2cccc(Cl)c2Cl)c1F` [Example 91] gave a logP of 5.46.

In the case of `CON=C(C(=O)N(C)SC(F)(Cl)Cl)c1ccccc1Oc1ncnc(Oc2cccc(C)c2C)c1F` [Example 92], the logP was 5.34.

`CON=C(C(=O)N(C)SC(F)(Cl)Cl)c1ccccc1Oc1ncnc(Oc2ccccc2OC(F)(F)F)c1F` [Example 93] yielded a logP of 5.2.

Consider `CON=C(C(=O)N(C)SC(F)(Cl)Cl)c1ccccc1Oc1ncnc(Oc2ccccc2OC(F)F)c1F` [Example 94], for which the logP is reported as 4.7.

For the compound `CCSCc1ccccc1Oc1ncnc(Oc2ccccc2C(=NOC)C(=O)N(C)SC(F)(Cl)Cl)c1F` [Example 95], the logP is reported as 5.36.

In the case of `CON=C(C(=O)N(C)SC(F)(Cl)Cl)c1ccccc1Oc1ncnc(Oc2cccc3c2OC(C)(C)C3)c1F` [Example 96], the logP was determined as 5.27.

Regarding `CON=C(C(=O)N(C)SC(F)(Cl)Cl)c1ccccc1Oc1ncnc(Oc2c(C)cccc2C)c1F` [Example 97], the logP stood at 5.4.

As for `CN(SC(F)(Cl)Cl)C(=O)C(=NOCF)c1ccccc1Oc1ncnc(Oc2ccccc2Cl)c1F` [Example 98], the logP is 4.84.

On to `CON=C(C(=O)N(C)SC(F)(Cl)Cl)c1ccccc1Oc1ncnc(Oc2ccc(OC(F)(F)F)cc2Cl)c1F` [Example 99], for which the logP worked out at 5.08.

For `CON=Cc1cccc(Oc2ncnc(Oc3ccccc3C(=NOC)C(=O)N(C)SC(F)(Cl)Cl)c2F)c1` [Example 100], the logP is 5.81.

In the case of `CON=C(C(=O)N(C)SC(F)(Cl)Cl)c1ccccc1Oc1ncnc(Oc2cccc(Br)c2)c1F` [Example 101], the logP amounted to 5.39.

`CON=C(C(=O)N(C)SC(F)(Cl)Cl)c1ccccc1Oc1ncnc(Oc2ccc(Cl)cc2Cl)c1F` [Example 102] returned a logP of 5.76.

`CON=C(C(=O)N(C)SC(F)(Cl)Cl)c1ccccc1Oc1ncnc(Oc2cc(Cl)cc(Cl)c2)c1F` [Example 103] displayed a logP of 5.71.

`CON=C(C(=O)N(C)SC(F)(Cl)Cl)c1ccccc1Oc1ncnc(Oc2ccc(Br)cc2)c1F` [Example 104] had a logP of 5.19.

Compound `CON=C(C(=O)N(C)SC(F)(Cl)Cl)c1ccccc1Oc1ncnc(Oc2ccccc2F)c1F` [Example 105] registered a logP of 4.73.

In turn, `CON=C(C(=O)N(C)SC(F)(Cl)Cl)c1ccccc1Oc1ncnc(Oc2cccc(C(F)(F)F)c2)c1F` [Example 106] had a logP of 5.11.

`CON=C(C(=O)N(C)SC(F)(Cl)Cl)c1ccccc1Oc1ncnc(Oc2ccc(C#N)cc2)c1F` [Example 107] yielded a logP of 4.34.

For `CON=C(C(=O)N(C)SC(F)(Cl)Cl)c1ccccc1Oc1ncnc(Oc2ccc(OC)cc2)c1F` [Example 108], the logP came to 4.63.

For `CCc1ccccc1Oc1ncnc(Oc2ccccc2C(=NOC)C(=O)N(C)SC(F)(Cl)Cl)c1F` [Example 109], the logP is 5.25.

On to `CCOc1ccccc1Oc1ncnc(Oc2ccccc2C(=NOC)C(=O)N(C)SC(F)(Cl)Cl)c1F` [Example 110], for which the logP was 4.86.

Take `CON=C(C(=O)N(C)SC(F)(Cl)Cl)c1ccccc1Oc1ncnc(Oc2ccccc2C(C)(C)C)c1F` [Example 111]: the logP is reported as 5.73.

Regarding `CON=C(C(=O)N(C)SC(F)(Cl)Cl)c1ccccc1Oc1ncnc(Oc2ccc(C(F)(F)F)cc2OC)c1F` [Example 112], the logP is 5.16.

`CON=C(C(=O)N(C)SC(F)(Cl)Cl)c1ccccc1Oc1ncnc(Oc2cccc(C)c2[N+](=O)[O-])c1F` [Example 113] returned a logP of 4.71.

As to `CON=C(C(=O)N(C)SC(F)(Cl)Cl)c1ccccc1Oc1ncnc(Oc2ccc(F)cc2Cl)c1F` [Example 114], the logP turned out to be 5.14.

As for `CON=C(C(=O)N(C)SC(F)(Cl)Cl)c1ccccc1Oc1ncnc(Oc2ccc(Cl)c(Cl)c2)c1F` [Example 115], the logP amounted to 5.58.

In turn, `CON=C(C(=O)N(C)SC(F)(Cl)Cl)c1ccccc1Oc1ncnc(Oc2ccc(F)cc2F)c1F` [Example 116] displayed a logP of 4.85.

For the compound `CON=C(C(=O)N(C)SC(F)(Cl)Cl)c1ccccc1Oc1ncnc(Oc2cccc(Cl)c2)c1F` [Example 117], the logP worked out at 5.14.

As for `CON=C(C(=O)N(C)SC(F)(Cl)Cl)c1ccccc1Oc1ncnc(Oc2cccc(F)c2)c1F` [Example 118], the logP was found to be 4.76.

`CON=C(C(=O)N(C)SC(F)(Cl)Cl)c1ccccc1Oc1ncnc(Oc2ccccc2C#N)c1F` [Example 119]: the logP was 4.28.

For `CON=C(C(=O)N(C)SC(F)(Cl)Cl)c1ccccc1Oc1ncnc(Oc2ccc(C)cc2)c1F` [Example 120], the logP is 5.02.

Compound `CON=C(C(=O)N(C)SC(F)(Cl)Cl)c1ccccc1Oc1ncnc(Oc2cc(C)ccc2C)c1F` [Example 121] registered a logP of 5.34.

Regarding `C=CCc1ccccc1Oc1ncnc(Oc2ccccc2C(=NOC)C(=O)N(C)SC(F)(Cl)Cl)c1F` [Example 122], the logP is listed as 5.3.

In turn, `CON=C(C(=O)N(C)SC(F)(Cl)Cl)c1ccccc1Oc1ncnc(Oc2ccccc2C(C)C)c1F` [Example 123] displayed a logP of 5.56.

`CON=C(C(=O)N(C)SC(F)(Cl)Cl)c1ccccc1Oc1ncnc(Oc2cc(C)ccc2C(C)C)c1F` [Example 124] showed a logP of 5.88.

For the compound `CON=C(C(=O)N(C)SC(F)(Cl)Cl)c1ccccc1Oc1ncnc(Oc2cc(Cl)ccc2C)c1F` [Example 125], the logP is 5.46.

`CON=C(C(=O)N(C)SC(F)(Cl)Cl)c1ccccc1Oc1ncnc(Oc2cccc(C(F)(F)F)c2Cl)c1F` [Example 126]: the logP came out at 5.42.

The compound `CON=C(C(=O)N(C)SC(F)(Cl)Cl)c1ccccc1Oc1ncnc(Oc2ccc(I)cc2)c1F` [Example 127] returned a logP of 5.35.

In turn, `CON=C(C(=O)N(C)SC(F)(Cl)Cl)c1ccccc1Oc1ncnc(Oc2cccc(C)c2)c1F` [Example 128] had a lipophilicity (logP) of 4.98.

`CON=C(C(=O)N(C)SC(F)(Cl)Cl)c1ccccc1Oc1ncnc(Oc2ccccc2OC)c1F` [Example 129] yielded a logP of 4.57.

`CON=C(C(=O)N(C)SC(F)(Cl)Cl)c1ccccc1Oc1ncnc(Oc2cccc(OC)c2)c1F` [Example 130]: the logP came out at 4.68.

On to `CCc1ccc(Oc2ncnc(Oc3ccccc3C(=NOC)C(=O)N(C)SC(F)(Cl)Cl)c2F)cc1` [Example 131], for which the logP turned out to be 5.38.

Consider `CON=C(C(=O)N(C)SC(F)(Cl)Cl)c1ccccc1Oc1ncnc(Oc2cccc(C(C)(C)C)c2)c1F` [Example 132], for which the logP came to 5.84.

As to `CON=C(C(=O)N(C)SC(F)(Cl)Cl)c1ccccc1Oc1ncnc(Oc2ccc(OC(F)(F)F)cc2)c1F` [Example 133], the logP turned out to be 5.3.

Compound `CCC(C)c1ccccc1Oc1ncnc(Oc2ccccc2C(=NOC)C(=O)N(C)SC(F)(Cl)Cl)c1F` (stereo not shown) [Example 134] yielded a logP of 5.86.

`CON=C(C(=O)N(C)SC(F)(Cl)Cl)c1ccccc1Oc1ncnc(Oc2ccc(N)c(Cl)c2Cl)c1F` [Example 136] came in with a logP of 4.68.

For `CCc1cc(C)cc(Oc2ncnc(Oc3ccccc3C(=NOC)C(=O)N(C)SC(F)(Cl)Cl)c2F)c1` [Example 137], the logP was found to be 5.76.

In turn, `CON=C(C(=O)N(C)SC(F)(Cl)Cl)c1ccccc1Oc1ncnc(Oc2ccc(OC(F)(F)F)cc2C)c1F` [Example 138] displayed a logP of 5.65.

As to `CON=C(C(=O)N(C)SC(F)(Cl)Cl)c1ccccc1Oc1ncnc(Oc2ccc(SC(F)(F)F)cc2)c1F` [Example 139], the logP is 5.6.

Compound `CON=Cc1ccccc1Oc1ncnc(Oc2ccccc2C(=NOC)C(=O)N(C)SC(F)(Cl)Cl)c1F` [Example 140] showed a logP of 5.03.

Take `CON=C(C(=O)N(C)SC(F)(Cl)Cl)c1ccccc1Oc1cc(Oc2cccc(Cl)c2C)ncn1` [Example 141]: the logP amounted to 5.29.

`CON=C(C(C)=NOCc1ccccc1C(=NOC)C(=O)N(C)SC(F)(Cl)Cl)c1ccccc1` [Example 143] had a logP of 5.48.

Compound `CON=C(C(=O)N(C)SC(F)(Cl)Cl)c1ccccc1OC(=O)c1c(F)cccc1F` [Example 144] displayed a logP of 4.41.

Regarding `CON=C(C(=O)N(C)SC(F)(Cl)Cl)c1ccccc1Oc1ncnc(OC)c1F` [Example 145], the logP turned out to be 5.45.

`CON=C(C(=O)N(C)SC(F)(Cl)Cl)c1ccccc1OC` [Example 146]: the logP is given as 3.69.
